This is an account of results in ChEMBL document CHEMBL4373702, “Intracellular Trapping of the Selective Phosphoglycerate Dehydrogenase (PHGDH) Inhibitor BI-4924 Disrupts Serine Biosynthesis” (J Med Chem, 2019).

Each structure is given as a SMILES string. Bounds are passed on as bounds.

Assay [1] has as its target T1, D-3-phosphoglycerate dehydrogenase (Homo sapiens, UniProt O43175).
T1 sequence (O43175 whole entry): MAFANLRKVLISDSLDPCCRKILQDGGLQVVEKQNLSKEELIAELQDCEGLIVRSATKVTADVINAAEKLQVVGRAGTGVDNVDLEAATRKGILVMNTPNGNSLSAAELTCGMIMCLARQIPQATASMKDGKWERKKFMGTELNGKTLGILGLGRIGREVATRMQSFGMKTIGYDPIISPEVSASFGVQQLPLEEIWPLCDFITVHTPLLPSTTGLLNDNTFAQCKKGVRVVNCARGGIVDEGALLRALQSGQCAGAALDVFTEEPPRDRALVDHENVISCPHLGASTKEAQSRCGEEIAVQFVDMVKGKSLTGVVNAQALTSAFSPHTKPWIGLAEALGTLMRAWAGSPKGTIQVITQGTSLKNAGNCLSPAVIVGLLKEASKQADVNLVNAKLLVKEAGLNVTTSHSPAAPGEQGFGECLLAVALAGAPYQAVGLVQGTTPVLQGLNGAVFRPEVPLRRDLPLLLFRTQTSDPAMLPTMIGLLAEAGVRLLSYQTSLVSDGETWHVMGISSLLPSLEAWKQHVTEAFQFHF
Nature of the assay: Inhibition of N-terminal His6-tagged human PHGDH (4 to 315 residues) assessed as effect on NADH fluorescence incubated for 2 hrs using 3-PG substrate in presence of 19 uM NAD+ and PSAT1 by diaphorase based luminescence assay.

Assay [2] addresses T1, D-3-phosphoglycerate dehydrogenase. Nature of the assay: Binding affinity to N-terminal His6-tagged human PHGDH (4 to 315 residues)by SPR assay. (In SPR one partner is held on a chip, and binding of the other changes the refractive index at the surface.)
The target is the same in assay [3]. Nature of the assay: Inhibition of N-terminal His6-tagged human PHGDH (4 to 315 residues) assessed as effect on NADH fluorescence incubated for 2 hrs using 3-PG substrate in presence of 250 uM NAD+ and PSAT1 by diaphorase based luminescence assay.
For assay [4] the target is unchanged. Nature of the assay: Inhibition of His6-tagged PHGDH (unknown origin) expressed in Escherichia coli BL21 assessed as effect on NADH fluorescence incubated for 60 mins using 3-PG as substrate in presence of 500 uM NAD+ and PSAT1 by diaphorase and resazurin dye based fluorescence assay.
For assay [5] the target is unchanged. Nature of the assay: Binding affinity to human PHGDH ( 1 to 533 residues) expressed in Escherichia coli Rosetta (DE3) by Sypro-orange dye based differential scanning fluorimetry.

In the case of `Cn1c(C(=O)NC(CN)c2ccccc2)cc2cc(Cl)ccc21` (racemic), the IC50 in assay [1] amounted to 39.6 µM. In turn, `Cn1c(C(=O)Nc2cccc(C(=O)O)c2)cc2ccccc21` displayed a Kd in assay [2] of 144 µM.

With `C[C@H](NC(=O)c1cc(-c2ccccc2)nn1C)c1ccccc1`, the IC50 in assay [1] is > 100 µM.

Consider `Cn1c(C(=O)NC(CO)c2ccccc2)cc2cc(Cl)ccc21` (racemic), for which the IC50 in assay [1] was 5.2 µM.

Take `C[C@@H](NC(=O)c1cc(-c2ccccc2)nn1C)c1ccc(N2CCCC2=O)cc1`: the IC50 in assay [1] is 3.3 µM. For the molecule `Cn1c(C(=O)NC(C(=O)O)c2ccccc2)cc2cc(Cl)ccc21` (racemic), the IC50 in assay [1] was > 100 µM.

In the case of `C[C@@H](NC(=O)c1cc(-c2ccccc2)nn1C)c1ccc(N2C(=O)CC[C@H]2C(=O)O)cc1`, in assay [1], the IC50 came to 0.1 µM. With `CC(NC(=O)c1cc(-c2ccccc2)nn1C)c1ccc(C(=O)O)cc1` (racemic), the IC50 in assay [1] amounted to 0.9 µM. On to `Cn1nc(-c2ccccc2)cc1C(=O)NCc1ccc(C(=O)O)cc1`, for which the IC50 in assay [1] stood at 5.7 µM. On to `C[C@@H](NC(=O)c1cc(-c2ccccc2)nn1C)c1ccc(NS(C)(=O)=O)cc1`, for which, in assay [1], the half-inhibitory concentration (IC50) came to 53.8 µM. Same read-out and setting: the value for `COCC(NC(=O)c1cc2cc(Cl)ccc2n1C)c1ccccc1` (racemic) was > 100 µM. Consider `C[C@@H](O)[C@@H](NC(=O)c1cc2cc(Cl)ccc2n1C)c1ccccc1`, for which, in assay [1], the IC50 came out at 12.1 µM. As to `COc1cc(Cl)cc2cc(C(=O)N[C@H](C)c3ccc(C(=O)O)cc3)n(C)c12`, the IC50 in assay [1] turned out to be 0.072 µM; in assay [3], 0.746 µM. The matching figures for `Cc1cc(Cl)c2cc(C(=O)N[C@H](C)c3ccc(C(=O)O)cc3)n(C)c2c1`: 0.028 µM and 0.246 µM. The matching figures for `Cc1cc2c(cc(C(=O)N[C@H](C)c3ccc(C(=O)O)cc3)n2C)c2ccccc12`: 0.028 µM and 0.249 µM.

Consider `Cn1c(C(=O)N[C@@H](c2ccccc2)[C@@H](O)C(F)(F)F)cc2cc(Cl)ccc21` (relative stereo), for which the IC50 in assay [1] is > 100 µM. On to `C[C@@H](NC(=O)c1cc(-c2ccccc2)nn1C)c1ccc([N+](=O)[O-])cc1`, for which the IC50 in assay [1] amounted to 55.4 µM. Turning to `C[C@@H](NC(=O)c1cc(-c2ccccc2)nn1C)c1ccc(N2C[C@@H](O)[C@@H](O)C2)cc1`, the IC50 in assay [1] was found to be 5.2 µM.

On to `C[C@@H](NC(=O)c1cc(-c2ccccc2)nn1C)c1ccc(-c2cncnc2)cc1`, for which, in assay [1], the IC50 stood at 21.5 µM.

As to `CC(=O)NS(=O)(=O)N1CCC(NC(=O)c2cc3c(Cl)c(Cl)ccc3n2C)C(CC(=O)O)C1` (configuration not stated), the IC50 in assay [4] is 0.01 to 1.5 µM. On to `Cn1c(C(=O)NC(C(N)=O)c2ccccc2)cc2cc(Cl)ccc21` (racemic), for which the IC50 in assay [1] is > 100 µM. For the molecule `C[C@@H](NC(=O)c1cc(-c2ccccc2)nn1C)c1ccc(S(=O)(=O)CC(=O)O)cc1`, the IC50 in assay [1] was 0.025 µM. As for `C[C@@H](NC(=O)c1cc(-c2ccccc2)nn1C)c1ccc(C(=O)O)cc1`, in assay [1], the IC50 turned out to be 0.4 µM.

Take `C[C@@H](NC(=O)c1cc2cc(Cl)c(Br)cc2n1C)c1ccc(C(=O)O)cc1`: the IC50 in assay [1] was 0.061 µM; in assay [3] it was 0.341 µM. Regarding `COc1cc(F)c(Cl)c2cc(C(=O)N[C@H](C)c3ccc(C(=O)O)cc3)n(C)c12`, the IC50 in assay [1] is 0.123 µM; in assay [3], 1.29 µM.

Take `CC(NC(=O)c1cc(-c2ccccc2)nn1C)c1ccc(S(N)(=O)=O)cc1` (racemic): the concentration for half-maximal inhibition (IC50) in assay [1] turned out to be 4.3 µM. `COc1ccc([C@@H](C)NC(=O)c2cc(-c3ccccc3)nn2C)cc1`: the IC50 in assay [1] turned out to be 16.2 µM. In the case of `Cn1c(C(=O)NC(CCO)c2ccccc2)cc2cc(Cl)ccc21` (racemic), in assay [1], the IC50 worked out at 100 µM.

Turning to `Cc1cc(Cl)c2cc(C(=O)N[C@H](C)c3ccc(S(=O)(=O)CC(=O)O)cc3)n(C)c2c1`, in assay [1], the IC50 came out at 0.003 µM. For the molecule `CC(NC(=O)c1cc(-c2ccccc2)nn1C)c1ccc(CC(=O)O)cc1` (racemic), the IC50 in assay [1] stood at 0.8 µM.

Take `CC(NC(=O)c1cc(-c2ccccc2)nn1C)c1ccc(S(C)(=O)=O)cc1` (racemic): the IC50 in assay [1] was found to be 5.83 µM. Same read-out and setting: then `C[C@@H](NC(=O)c1cc(-c2ccccc2)nn1C)c1ccc(N(CC(=O)O)S(C)(=O)=O)cc1`, with 1.4 µM. In the case of `Cn1c(C(=O)N[C@@H](c2ccccc2)[C@H](O)C(F)(F)F)cc2cc(Cl)ccc21` (relative stereo), the half-inhibitory concentration (IC50) in assay [1] is > 100 µM. Take `Cc1ccc([C@@H](C)NC(=O)c2cc(-c3ccccc3)nn2C)cc1`: the IC50 in assay [1] was found to be 23.2 µM.

On to `C[C@@H](NC(=O)c1cc(-c2ccccc2)nn1C)c1ccc(N(C)C(=N)N)cc1`, for which, in assay [1], the IC50 is > 100 µM. In the case of `C[C@@H](NC(=O)c1cc2c3ccccc3ccc2n1C)c1ccc(C(=O)O)cc1`, the IC50 in assay [1] was 0.058 µM; in assay [3], 0.345 µM.

`CC(NC(=O)c1cc(-c2ccccc2)nn1C)c1ccc(N(C)S(C)(=O)=O)cc1` (racemic): the IC50 in assay [1] came out at 6.7 µM. Turning to `Cn1nc(-c2ccccc2)cc1C(=O)NC(C)(C)c1ccc(C(=O)O)cc1`, the IC50 in assay [1] stood at 1.3 µM.

As to `Cc1cc2c(cc1Cl)cc(C(=O)N[C@H](C)c1ccc(C(=O)O)cc1)n2C`, the IC50 is 0.051 µM in assay [1] and 0.412 µM in assay [3].

For the molecule `CCc1cc(Cl)c2cc(C(=O)N[C@H](C)c3ccc(C(=O)O)cc3)n(C)c2c1`, the half-inhibitory concentration (IC50) in assay [1] worked out at 0.03 µM; in assay [3], 0.301 µM. As for `C[C@@H](NC(=O)c1cc(-c2ccccc2)nn1C)c1ccc(N2CC[C@H](O)C2)cc1`, the IC50 in assay [1] is 12.2 µM. The molecule `NC(=O)c1ccc(F)c(Cl)c1` displayed a Kd in assay [5] of 1500 µM.

Consider `C[C@@H](NC(=O)c1cc(-c2ccccc2)nn1C)c1ccc(C(N)=O)cc1`, for which the IC50 in assay [1] stood at 3.1 µM. On to `Cn1nc(-c2ccccc2)cc1C(=O)NC1CC1`, for which the Kd in assay [2] was 105 µM.

As to `C[C@@H](NC(=O)c1cc(-c2ccccc2)nn1C)c1ccc(NC(=N)N)cc1`, the IC50 in assay [1] is > 100 µM.

Take `Cn1nc(-c2ccccc2)cc1C(=O)NCc1ccccc1`: the IC50 in assay [1] was > 100 µM. In the case of `C[C@@H](NC(=O)c1cc(-c2ccccc2)nn1C)c1ccc(C(=O)NS(C)(=O)=O)cc1`, the IC50 in assay [1] was 0.3 µM.

`C[C@@H](NC(=O)c1cc(-c2ccccc2)nn1C)c1ccc(N)cc1`: the IC50 in assay [1] is 38.1 µM.

In the case of `CC(NC(=O)c1cc(-c2ccccc2)nn1C)c1ccc(C#N)cc1` (racemic), the IC50 in assay [1] stood at 33.7 µM. Still for that read-out and setting: then `Cc1cc2c(cc(C(=O)N[C@H](C)c3ccc(S(=O)(=O)CC(=O)O)cc3)n2C)c(Cl)c1Cl`, with 0.002 µM. `C[C@@H](NC(=O)c1cc2c(Cl)cc(C(F)F)cc2n1C)c1ccc(C(=O)O)cc1`: the figures for the IC50 in assay [1] and in assay [3] were 0.081 µM and 0.714 µM, respectively. With `C[C@@H](NC(=O)c1cc2c(Cl)c(Cl)ccc2n1C)c1ccc(C(=O)O)cc1`, the IC50 in assay [1] was 0.03 µM; in assay [3] it was 0.228 µM.

Take `C[C@@H](NC(=O)c1cc2ccccc2n1C)c1ccc(C(=O)O)cc1`: in assay [1], the IC50 is 1.95 µM. On the same count and under the same terms, then `C[C@@H](NC(=O)c1cc(-c2ccccc2)nn1C)c1ccc(N2C(=O)CNC2=O)cc1`, with 2.3 µM. With `CC(=O)NS(=O)(=O)c1ccc(C(C)NC(=O)c2cc(-c3ccccc3)nn2C)cc1` (racemic), the IC50 in assay [1] is 0.07 µM. As for `Cc1cc2c(cc(C(=O)N[C@H](C)c3ccc(C(=O)O)cc3)n2C)c(Cl)c1Cl`, the IC50 in assay [1] is 0.014 µM; in assay [3] it was 0.095 µM. The corresponding values for `C[C@@H](NC(=O)c1cc2cc(Cl)ccc2n1C)c1ccc(C(=O)O)cc1` are 0.254 µM and 2.37 µM. As for `C[C@H](O)[C@@H](NC(=O)c1cc2cc(Cl)ccc2n1C)c1ccccc1`, the IC50 in assay [1] was 11.7 µM.

`C[C@@H](NC(=O)c1cc(-c2ccccc2)nn1C)c1ccc(N2CCCC2)cc1`: the IC50 in assay [1] worked out at 42.1 µM.

Regarding `CC(=O)NS(=O)(=O)c1ccc([C@@H](C)NC(=O)c2cc(-c3ccccc3)nn2C)cc1`, the IC50 in assay [1] was found to be 0.1 µM. Take `C[C@@H](NC(=O)c1cc(-c2ccccc2)nn1C)c1ccc(N2CCCS2(=O)=O)cc1`: the IC50 in assay [1] stood at 2.5 µM.

Consider `C[C@@H](NC(=O)c1cc2cc(Cl)cc(OC(F)(F)F)c2n1C)c1ccc(C(=O)O)cc1`, for which the IC50 came to 0.824 µM in assay [1] and 6.69 µM in assay [3].

Take `C[C@@H](NC(=O)c1cc(-c2ccccc2)nn1C)c1ccc(CO)cc1`: in assay [1], the IC50 stood at 6 µM. Same read-out and setting: then `C[C@@H](NC(=O)c1cc(-c2ccccc2)nn1C)c1ccccc1`, with 22 µM.

For orientation: IC50 means the concentration that inhibits the measured activity by half. For orientation: Kd means the free concentration of one partner at which half of the binding sites on the other are occupied at equilibrium, for simple one-to-one binding. Read a high Kd as lower affinity.
